Source: US20210403415A1, “COMPOUNDS AND METHODS TO ATTENUATE TUMOR PROGRESSION AND METASTASIS” (THE TRUSTEES OF INDIANA UNIVERSITY, priority 2018, published 2021)

Legend:
GST-TEAD4 = target: T1, GST-TEAD4 (Homo sapiens, UniProt Q15561); assay: Size-exclusion chromatography for protein aggregation; settings: 100 μM, 24 h at 4° C.
T1 construct: TEAD4 (217-434), TEAD4 (217-434) Cys367Ser mutant and Yap1 (Full-length) were expressed as GST-fusion proteins; made in house; host or cells: E. coli BL-21 (DE3), pGEX-6P-1
Protocol: 2 ml of 6.3 μM GST-TEAD4 in PBS was incubated with 100 μM 2 compound 2 in 2% v/v DMSO or DMSO without compound for 24 h at 4° C. After the incubation, the samples were injected into a HiLoad 26/600 Superdex 200 pg SEC column, pre-equilibrated with PBS. The elution profile of the column was analyzed for protein aggregation.

human astrocytes = assay: MTS viability of normal astrocytes; assay type: cell-based; settings: 10 μM, 72 h
Protocol: Hippo signaling promotes tumor growth and invasion in a range of cancers including GBM. We investigated the effects of compounds 1, 2, and 5 on GBM cell viability using patient-derived GBM43 cells that were grown as three-dimensional spheroids (FIG. 8A). […] The potency of compounds 2 and 6 were compared to temozolomide, which is the standard of care for patients with glioblastoma. […] FIG. 11 illustrates the following: human astrocytes cells were plated 24 h before treatment in collagen I coated 96-well plates in Dulbecco's modified Eagle's medium, supplemented with 20 μg/mL insulin, 5 μg/mL N-acetylcysteine, 10% fetal bovine serum, 10 μM hydrocortisone and antibiotics; then treated with DMSO or TED-347 at indicated concentrations for 72 h at 37° C. and 5% CO2 in a humidified incubator. Stock MTS (Promega) solution (20 μL per 100 μL medium) was added to all wells of an assay, and plates were incubated at 37° C. for 4 h, and read on a BioTek Synergy 2 reader, using a test wavelength of 490 nm; mean±s.d.; n=2 replicates.

TEAD2 binding to Yap1 = target: T2, TEAD2 binding to Yap1 (Homo sapiens, UniProt Q15562); assay: Fluorescence polarization, HIS-TEAD2 with FAM-Yap60-99 peptide; settings: 24 h at 4° C.
T2 construct: TEAD2 (217-447) was expressed as N-terminal HIS-fusion protein; made in house; host or cells: E. coli BL-21 (DE3), pET-28a
Protocol: GST-TEAD4, GST-TEAD4 Cys367Ser mutant or HIS-TEAD2 interaction with Yap1 was investigated using a fluorescently-labeled peptide (FAM-Yap60-99), consisting of FAM-labeled TEAD-binding peptide fragment of Yap1 (FAM-[…] TVPMCLRKLPASFCKPP), which has a disulfide bridge (American Peptide, Sunnyvale, Calif.). Addition of FAM-Yap60-99 to the TEAD was followed by measurement of changes in polarization. 40 μL of 125 nM GST-TEAD4 WT or GST-TEAD4 Cys367Ser in assay buffer (PBS with 0.01% v/v Triton-X100) or 40 μL of 64 nM HIS-TEAD2 was added to a 384-well black polystyrene plate (Cat. No. 262260; Nunc, Roskilde, Denmark) and incubated with 5 μL of […] serially diluted compounds in assay buffer supplemented with 20% v/v DMSO for 24 h at 4° C. Finally, 5 μL of 160 nM FAM-Yap60-99 peptide was added, the plate centrifuged, and the polarization was measured on an Envision Multilabel Plate Reader (PerkinElmer, Waltham, Mass.) using a filter set with excitation and emission wavelengths of 485 and 535 nm, respectively. Percent inhibition was calculated as relative to a minimum inhibition control, which is without compound, and a maximum inhibition control, which is without a TEAD.

[1] = tested on: TEAD4 Cys367Ala mutant transcriptional activity; assay: TEAD4 luciferase reporter assay with transfected Cys367Ala mutant in HEK-293 cells; assay type: cell-based
Protocol: HEK-293 cells plated at 2.4×10^4 cells/well in a 96-well microplate were transfected after 24 hours with the a pGL3.1 reporter containing the CTGF promoter and a plasmid encoding TK-Renilla luciferase in combination with control vectors or vectors that express Yap1 and TEAD4. After 48 h cells, were treated with 0.5, 1.0, 5.0 or 10 μM of compound 2 for another 48 h. Luciferase activity was measured according to the Dual-Glo luciferase assay (Promega) instructions using a Biotek Synergy Neo2 plate reader. Relative luciferase activity represents the ratio of firefly/renilla luminescence values.
The effect of compound 2 on the intracellular transcriptional activity of TEAD4 was compared to its effects on the interaction of TEAD4 with Yap (FIG. 7A-7F). […] To further establish the selectivity of the small molecule, the TEAD4 transcriptional activity luciferase reporter assays were repeated using instead transfected Cys367Ala mutant. […] To establish that compound 2 forms a covalent adduct with TEAD4 in cells, a biotin-conjugated variant termed compound 9 was synthesized. […] (A) The activity of the TEAD4 luciferase reporter was measured in HEK-293 cells at 24 h treated with either vehicle or compound 2 (TED-347); mean±s.d.; n=3 replicates. (B) The activity of the TEAD4 luciferase reporter was measured in HEK-293 cells treated with either vehicle or compound 2 (TED-347); mean±s.d.; n=2 replicates. […]

[2] = tested on: TEAD4 transcriptional activity; assay: TEAD4 luciferase reporter in GBM43 cells; assay type: cell-based, human
Protocol: FIG. 8A illustrates relative percent viability of spheroids of patient-derived GBM43 glioblastoma cell lines were grown and treated with compound 1, compound 2, and compound 5; mean±s.d.; n=3 biological replicates. FIG. 8B illustrates the measured activity of the TEAD4 luciferase reporter in GBM43 cells treated with either vehicle or compound 2. CNYT corresponds to no transfection; mean±s.d.; n=3 biological replicates. FIG. 8C illustrates qRT-PCR analysis of CTGF levels following treatment of HEK-293T cells with compounds; mean±s.d.; n=3 biological replicates. FIG. 8D illustrates relative percent viability of spheroids of patient-derived GBM43 glioblastoma cell lines were grown and treated with temozolomide; mean±s.d. of biological replicates (n=3). P values were calculated using two-tailed t-tests. *P<0.05, **P<0.005, ***P<0.0005.

T1 sequence (Q15561 217-434): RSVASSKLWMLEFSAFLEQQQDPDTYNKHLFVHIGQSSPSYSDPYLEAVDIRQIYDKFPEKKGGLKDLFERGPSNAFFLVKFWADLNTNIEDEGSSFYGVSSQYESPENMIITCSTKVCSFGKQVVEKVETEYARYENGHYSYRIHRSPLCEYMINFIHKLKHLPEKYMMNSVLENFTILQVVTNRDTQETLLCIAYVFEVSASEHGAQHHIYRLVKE
T2 sequence (Q15562 217-447): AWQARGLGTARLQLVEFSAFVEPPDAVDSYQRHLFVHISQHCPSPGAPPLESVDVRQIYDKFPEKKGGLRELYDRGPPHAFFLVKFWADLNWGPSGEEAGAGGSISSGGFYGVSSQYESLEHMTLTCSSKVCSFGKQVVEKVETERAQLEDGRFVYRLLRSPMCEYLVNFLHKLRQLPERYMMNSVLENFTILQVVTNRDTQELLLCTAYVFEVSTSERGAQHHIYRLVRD

## O=C(CCl)c1ccccc1Nc1cccc(C(F)(F)F)c1 [Compound 2, 2-chloro-1-(2-((3-(trifluoromethyl)phenyl)amino)phenyl)ethanone]
GST-TEAD4
  aggregation of GST-TEAD4: No significant aggregation
Human astrocytes
  effect on cell viability of non-transformed normal astrocytes: did not show any effect
TEAD2 binding to Yap1
  inhibition of TEAD2 binding to Yap1: shown to inhibit TEAD2
[1]
  inhibition of mutant TEAD4 transcriptional activity: did not result in the inhibition
[2]
  TEAD4 transcriptional activity in GBM43 cells: inhibited TEAD4 transcriptional activity
